{"source": "patent US20020111274A1", "about": "“1-alkyl-3-[1-(substituted phenyl) benzotriazol-6-yl] uracils” (BASF Aktiengesellschaft, priority 2000, published 2002)", "parameters_in_all_cases": "scale not given here", "key": {"GALAP Galium": {"system": "GALAP Galium", "experiment": "Postemergence herbicidal evaluation, GALAP", "format": "in vivo, Galium aparine", "conditions": "rated two - three weeks after treatment", "method_in_brief": "(§1)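 Seedlings grown about two weeks were sprayed with compound in 80/20 acetone/water containing 1.0% methylated seed oil, at the equivalent of about 0.006 to 0.400 kg/ha, through a nozzle at 40 psi. Plants were kept in the greenhouse and rated visually about two to three weeks after treatment.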"}, "ABUTH Velvetleaf [1]": {"system": "ABUTH Velvetleaf", "experiment": "Postemergence herbicidal evaluation, ABUTH", "format": "in vivo, Abutilon theophrasti, Medic.", "conditions": "rated two - three weeks after treatment", "method_in_brief": "as §1"}, "ORYSAT Rice, Tebonnet [2]": {"system": "ORYSAT Rice, Tebonnet", "experiment": "Postemergence herbicidal evaluation, ORYSAT", "format": "in vivo, Oryza sativa, (L.)", "conditions": "rated two - three weeks after treatment", "method_in_brief": "as §1"}, "ABUTH Velvetleaf [3]": {"system": "ABUTH Velvetleaf", "experiment": "Preemergence herbicidal evaluation, ABUTH", "format": "in vivo, Abutilon theophrasti, Medic.", "conditions": "rated four to five weeks after treatment", "method_in_brief": "(§2)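 Seeds mixed with potting soil were planted on about one inch of soil in cups, then sprayed with the test compound in aqueous acetone at roughly 0.013 to 0.800 kg per hectare. Plants were kept under standard greenhouse care and injury was rated four to five weeks after treatment.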"}, "SETVI Foxtail, Green [4]": {"system": "SETVI Foxtail, Green", "experiment": "Postemergence herbicidal evaluation, SETVI", "format": "in vivo, Setaria viridis, (L.) Beau", "conditions": "rated two - three weeks after treatment", "method_in_brief": "as §1"}, "CASOB Sicklepod": {"system": "CASOB Sicklepod", "experiment": "Preemergence herbicidal evaluation, CASOB", "format": "in vivo, Cassia obtusifolia, L.", "conditions": "rated four to five weeks after treatment", "method_in_brief": "as §2"}, "[5]": {"system": "CHEAL Lambsquarters, Common", "experiment": "Preemergence herbicidal evaluation, CHEAL", "format": "in vivo, Chenopodium album, L.", "conditions": "rated four to five weeks after treatment", "method_in_brief": "as §2"}, "ECHOG Barnyardgrass": {"system": "ECHOG Barnyardgrass", "experiment": "Preemergence herbicidal evaluation, ECHOG", "format": "in vivo, Echinochloa crus-galli, (L.) Beau", "conditions": "rated four to five weeks after treatment", "method_in_brief": "as §2"}, "GLXMAW Soybean, Williams": {"system": "GLXMAW Soybean, Williams", "experiment": "Preemergence herbicidal evaluation, GLXMAW", "format": "in vivo, Glycine max, (L.) Merr. cv Williams", "conditions": "rated four to five weeks after treatment", "method_in_brief": "as §2"}, "ORYSAT Rice, Tebonnet [6]": {"system": "ORYSAT Rice, Tebonnet", "experiment": "Preemergence herbicidal evaluation, ORYSAT", "format": "in vivo, Oryza sativa, (L.)", "conditions": "rated four to five weeks after treatment", "method_in_brief": "as §2"}, "AMBEL Ragweed, Common": {"system": "AMBEL Ragweed, Common", "experiment": "Preemergence herbicidal evaluation, AMBEL", "format": "in vivo, Ambrosia artemisifolia, L.", "conditions": "rated four to five weeks after treatment", "method_in_brief": "as §2"}, "SETVI Foxtail, Green [7]": {"system": "SETVI Foxtail, Green", "experiment": "Preemergence herbicidal evaluation, SETVI", "format": "in vivo, Setaria viridis, (L.) Beau", "conditions": "rated four to five weeks after treatment", "method_in_brief": "as §2"}}}
{"smiles": "COC(=O)COc1ccc(-n2nnc3cc(F)c(-n4c(=O)cc(C(F)(F)F)n(C)c4=O)cc32)cc1", "note": "[Example 45]", "values": [{"measurement": "Postemergence herbicidal rating GALAP", "setting": "GALAP Galium; rate 0.008 kg/ha", "value": 0.0}, {"measurement": "Postemergence herbicidal rating GALAP", "setting": "GALAP Galium; rate 0.016 kg/ha", "value": 0.0}, {"measurement": "Postemergence herbicidal rating GALAP", "setting": "GALAP Galium; rate 0.032 kg/ha", "value": 1.0}, {"measurement": "Postemergence herbicidal rating GALAP", "setting": "GALAP Galium; rate 0.062 kg/ha", "value": 3.0}, {"measurement": "Postemergence herbicidal rating ABUTH", "setting": "ABUTH Velvetleaf [1]; rate 0.008 kg/ha", "value": 9.0}, {"measurement": "Postemergence herbicidal rating ABUTH", "setting": "ABUTH Velvetleaf [1]; rate 0.016 kg/ha", "value": 9.0}, {"measurement": "Postemergence herbicidal rating ABUTH", "setting": "ABUTH Velvetleaf [1]; rate 0.032 kg/ha", "value": 9.0}, {"measurement": "Postemergence herbicidal rating ABUTH", "setting": "ABUTH Velvetleaf [1]; rate 0.062 kg/ha", "value": 9.0}, {"measurement": "Postemergence herbicidal rating ORYSAT", "setting": "ORYSAT Rice, Tebonnet [2]; rate 0.008 kg/ha", "value": 0.5}, {"measurement": "Postemergence herbicidal rating ORYSAT", "setting": "ORYSAT Rice, Tebonnet [2]; rate 0.016 kg/ha", "value": 1.0}, {"measurement": "Postemergence herbicidal rating ORYSAT", "setting": "ORYSAT Rice, Tebonnet [2]; rate 0.032 kg/ha", "value": 2.0}, {"measurement": "Postemergence herbicidal rating ORYSAT", "setting": "ORYSAT Rice, Tebonnet [2]; rate 0.062 kg/ha", "value": 3.5}, {"measurement": "Preemergence herbicidal rating, ABUTH", "setting": "ABUTH Velvetleaf [3]; rate 0.016 kg/ha", "value": 0.0}, {"measurement": "Preemergence herbicidal rating, ABUTH", "setting": "ABUTH Velvetleaf [3]; rate 0.032 kg/ha", "value": 0.0}, {"measurement": "Preemergence herbicidal rating, ABUTH", "setting": "ABUTH Velvetleaf [3]; rate 0.062 kg/ha", "value": 4.0}, {"measurement": "Preemergence herbicidal rating, ABUTH", "setting": "ABUTH Velvetleaf [3]; rate 0.125 kg/ha", "value": 9.0}, {"measurement": "Postemergence herbicidal rating SETVI", "setting": "SETVI Foxtail, Green [4]; rate 0.008 kg/ha", "value": 3.0}, {"measurement": "Postemergence herbicidal rating SETVI", "setting": "SETVI Foxtail, Green [4]; rate 0.016 kg/ha", "value": 8.0}, {"measurement": "Postemergence herbicidal rating SETVI", "setting": "SETVI Foxtail, Green [4]; rate 0.032 kg/ha", "value": 9.0}, {"measurement": "Postemergence herbicidal rating SETVI", "setting": "SETVI Foxtail, Green [4]; rate 0.062 kg/ha", "value": 9.0}, {"measurement": "Preemergence herbicidal rating, CASOB", "setting": "CASOB Sicklepod; rate 0.016 kg/ha", "value": 0.0}, {"measurement": "Preemergence herbicidal rating, CASOB", "setting": "CASOB Sicklepod; rate 0.032 kg/ha", "value": 0.0}, {"measurement": "Preemergence herbicidal rating, CASOB", "setting": "CASOB Sicklepod; rate 0.062 kg/ha", "value": 0.0}, {"measurement": "Preemergence herbicidal rating, CHEAL", "setting": "[5]; rate 0.016 kg/ha", "value": 0.0}, {"measurement": "Preemergence herbicidal rating, CHEAL", "setting": "[5]; rate 0.032 kg/ha", "value": 0.0}, {"measurement": "Preemergence herbicidal rating, CHEAL", "setting": "[5]; rate 0.062 kg/ha", "value": 9.0}, {"measurement": "Preemergence herbicidal rating, CHEAL", "setting": "[5]; rate 0.125 kg/ha", "value": 9.0}, {"measurement": "Preemergence herbicidal rating, ECHCG", "setting": "ECHOG Barnyardgrass; rate 0.016 kg/ha", "value": 0.0}, {"measurement": "Preemergence herbicidal rating, ECHCG", "setting": "ECHOG Barnyardgrass; rate 0.032 kg/ha", "value": 0.0}, {"measurement": "Preemergence herbicidal rating, ECHCG", "setting": "ECHOG Barnyardgrass; rate 0.062 kg/ha", "value": 0.0}, {"measurement": "Preemergence herbicidal rating, ECHCG", "setting": "ECHOG Barnyardgrass; rate 0.125 kg/ha", "value": 0.0}, {"measurement": "Preemergence herbicidal rating, GLXMAW", "setting": "GLXMAW Soybean, Williams; rate 0.016 kg/ha", "value": 0.0}, {"measurement": "Preemergence herbicidal rating, GLXMAW", "setting": "GLXMAW Soybean, Williams; rate 0.032 kg/ha", "value": 0.0}, {"measurement": "Preemergence herbicidal rating, GLXMAW", "setting": "GLXMAW Soybean, Williams; rate 0.062 kg/ha", "value": 0.0}, {"measurement": "Preemergence herbicidal rating, GLXMAW", "setting": "GLXMAW Soybean, Williams; rate 0.125 kg/ha", "value": 1.0}, {"measurement": "Preemergence herbicidal rating, ORYSAT", "setting": "ORYSAT Rice, Tebonnet [6]; rate 0.016 kg/ha", "value": 0.0}, {"measurement": "Preemergence herbicidal rating, ORYSAT", "setting": "ORYSAT Rice, Tebonnet [6]; rate 0.032 kg/ha", "value": 0.0}, {"measurement": "Preemergence herbicidal rating, ORYSAT", "setting": "ORYSAT Rice, Tebonnet [6]; rate 0.062 kg/ha", "value": 0.0}, {"measurement": "Preemergence herbicidal rating, ORYSAT", "setting": "ORYSAT Rice, Tebonnet [6]; rate 0.125 kg/ha", "value": 5.0}, {"measurement": "Preemergence herbicidal rating, AMBEL", "setting": "AMBEL Ragweed, Common; rate 0.016 kg/ha", "value": 0.0}, {"measurement": "Preemergence herbicidal rating, AMBEL", "setting": "AMBEL Ragweed, Common; rate 0.032 kg/ha", "value": 0.0}, {"measurement": "Preemergence herbicidal rating, AMBEL", "setting": "AMBEL Ragweed, Common; rate 0.062 kg/ha", "value": 0.0}, {"measurement": "Preemergence herbicidal rating, AMBEL", "setting": "AMBEL Ragweed, Common; rate 0.125 kg/ha", "value": 0.0}, {"measurement": "Preemergence herbicidal rating, SETVI", "setting": "SETVI Foxtail, Green [7]; rate 0.016 kg/ha", "value": 0.0}, {"measurement": "Preemergence herbicidal rating, SETVI", "setting": "SETVI Foxtail, Green [7]; rate 0.032 kg/ha", "value": 0.0}, {"measurement": "Preemergence herbicidal rating, SETVI", "setting": "SETVI Foxtail, Green [7]; rate 0.062 kg/ha", "value": 9.0}, {"measurement": "Preemergence herbicidal rating, SETVI", "setting": "SETVI Foxtail, Green [7]; rate 0.125 kg/ha", "value": 9.0}]}
